Consider two molecules from article PMC13221243, “Crosstalk Between Lysine Lactylation and Acetylation Regulates Lactate Dehydrogenase in Streptococcus mutans” (Genomics, Proteomics & Bioinformatics, 2025).

Structures are written as SMILES.

For experiment [1], the target named is T1, ActA (Streptococcus mutans, UniProt Q8DVT1).
T1 construct: gene SMU_386; recombinant His-tagged from pET28a, E. coli BL21(DE3), nickel purified
T1 sequence (Q8DVT1 1-144): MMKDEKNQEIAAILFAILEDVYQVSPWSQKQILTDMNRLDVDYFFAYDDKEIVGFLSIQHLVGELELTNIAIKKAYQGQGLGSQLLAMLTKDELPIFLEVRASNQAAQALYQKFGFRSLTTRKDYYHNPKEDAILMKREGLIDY
Description: in vitro acylation of LDH, anti-Kac Western blot. The experiment is classed as biochemical. The settings on record: acyl acceptor recombinant LDH; pH 7.5, 10 mM MgCl2, 37°C, 3 h.

Experiment [2] has as its target T1, ActA. Description: in vitro acylation of LDH, anti-Kla Western blot. The experiment is classed as biochemical. The settings on record: acyl acceptor recombinant LDH; pH 7.5, 10 mM MgCl2, 37°C, 3 h.

As for `CC(=O)SCCNC(=O)CCNC(=O)[C@H](O)C(C)(C)COP(=O)(O)OP(=O)(O)OC[C@H]1O[C@@H](n2cnc3c(N)ncnc32)[C@H](O)[C@@H]1OP(=O)(O)O` [Ac-CoA], the “in vitro acylation of LDH, anti-Kac Western blot” value at ActA [1] is “However, ActA significantly increased the levels of Kla and Kac in LDH enzymatically”.

Turning to `CC(O)C(=O)SCCNC(=O)CCNC(=O)[C@H](O)C(C)(C)COP(=O)(O)OP(=O)(O)OC[C@H]1O[C@@H](n2cnc3c(N)ncnc32)[C@H](O)[C@@H]1OP(=O)(O)O` (some centres unmarked) [La-CoA], on ActA [2], the “in vitro acylation of LDH, anti-Kla Western blot” value is “However, ActA significantly increased the levels of Kla and Kac in LDH enzymatically”.
